Positions of bridges follow the written chain, without caps; N, C: chain ends. Residues, ends and D or L forms follow the SMILES beside them.
Columns and labels:
GPR68 [1] = molecular target: GPR68 (Homo sapiens, UniProt Q15743); assay: Real-time receptor internalization (TR-FRET), concentration-response; type: cell-based; set-up: hIL-2Ra signal peptide (N); expressed in transfected cells; conditions: GPR68, mean, SEM and n
Summary of the method: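 Doxycycline-induced SNAP-tagged receptor cells had surface receptors labelled with Lumi4-Tb and fluorescein-O-acetic acid added. TR-FRET internalization after peptide addition was recorded for 60 min at 37°C (ex 340, em 520/615 nm). Area under the curve, normalized to plate average, gave concentration-response curves.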

GPR68 [2] = assay: β-arrestin recruitment (Tango); type: cell-based, human
Protocol: The peptide library was additionally screened against 120 GPCR targets in parallel, including all available orphan receptors and 27 known class A peptide receptors using the Tango assay platform ([Kroeze et al., 2015]). Briefly, HTLA cells (a HEK293 cell line stably expressing a tTA-dependent luciferase reporter and a β-arrestin2-TEV fusion gene) were plated 10,000 cells/well in poly-L-lysine–coated clear-bottom white 384-well plates in DMEM supplemented with 10% FBS, 100 U/ml penicillin and 100 μg/ml streptomycin, 2 μg/ml puromycin and 100 μg/ml hygromycin B. 24 hr later, cells were transfected with Tango GPCR constructs using the calcium phosphate method ([Jordan et al., 1996]). The next day, culture medium was changed to DMEM + 1% dFBS and 10 μM peptides were added for overnight stimulation. Bright-Glo solution (Promega) was incubated for 15–20 min at room temperature, and luminescence was counted using a Trilux luminescence counter (Wallac).
For subsequent peptide validation experiments using Tango assays, HTLA cells were transiently transfected in 10 cm dishes with the receptor of interest using polyethylenimine (PEI) ([Longo et al., 2013]). […] Assays were performed as described above, with luminescence measured using an EnSpire 2300 Multimode plate reader (PerkinElmer). Luminescence counts were exported into Excel and were analyzed using GraphPad Prism 7.

GPR68 (Homo sapiens, UniProt Q15743), sequence (Q15743 2-365 limits assumed): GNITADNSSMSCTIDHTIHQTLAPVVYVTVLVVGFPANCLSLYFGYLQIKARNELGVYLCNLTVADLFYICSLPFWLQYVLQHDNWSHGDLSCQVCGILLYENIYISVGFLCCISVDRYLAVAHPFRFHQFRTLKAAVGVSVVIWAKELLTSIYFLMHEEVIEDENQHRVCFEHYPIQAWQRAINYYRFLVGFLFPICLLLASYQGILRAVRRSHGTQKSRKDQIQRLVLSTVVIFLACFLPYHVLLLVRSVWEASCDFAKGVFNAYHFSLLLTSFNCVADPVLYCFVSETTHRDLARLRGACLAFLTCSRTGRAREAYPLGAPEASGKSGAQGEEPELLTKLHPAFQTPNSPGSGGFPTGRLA

| SMILES | Emax, Internalization (AUC) (GPR68 [1]) | EC50 (GPR68 [1]; read-out: pEC50, Internalization (AUC) (converted)) | Comment on response, Tango (fold over basal); Emax and pEC50 n.d. (GPR68 [2]) | pEC50, Internalization (AUC) (GPR68 [1]) |
| --- | --- | --- | --- | --- |
| CC[C@H](C)[C@H](NC(=O)[C@H](CCCNC(=N)N)NC(=O)[C@H](C)NC(=O)CNC(=O)[C@H](CCCCN)NC(=O)[C@H](CCCNC(=N)N)NC(=O)[C@@H](NC(=O)[C@H](C)NC(=O)[C@@H]1CSSC[C@H](NC(=O)[C@H](CCSC)NC(=O)[C@@H]2CCCN2C(=O)[C@@H](NC(=O)[C@H](CCC(N)=O)NC(=O)CNC(=O)[C@@H](N)Cc2ccc(O)cc2)C(C)C)C(=O)N[C@@H](CC(=O)O)C(=O)N[C@@H](C)C(=O)NCC(=O)N[C@@H](CCC(=O)O)C(=O)N[C@@H](CCC(N)=O)C(=O)N1)C(C)C)C(N)=O [CART(42-89)_(9-28)] (H-YGQVPMCDAGEQCAVRKGARI-NH2; disulfide 7-13; N-terminus assumed) | 9.4 | 3.55 µM | No response | – |
| CC(C)C[C@H](NC(=O)[C@@H]1CCCN1C(=O)[C@H](Cc1ccccc1)NC(=O)[C@H](C)NC(=O)[C@H](CCC(=O)O)NC(=O)[C@H](C)NC(=O)[C@H](CO)NC(=O)[C@H](CCC(=O)O)NC(=O)[C@H](CC(N)=O)NC(=O)[C@H](CCC(=O)O)NC(=O)[C@H](C)NC(=O)[C@@H](NC(=O)[C@H](CC(N)=O)NC(=O)[C@@H]1CCCN1C(=O)[C@H](Cc1ccc(O)cc1)NC(=O)[C@@H](NC(=O)[C@H](CCCCN)NC(=O)[C@@H](NC(=O)[C@@H]1CCCN1C(=O)[C@H](CCCNC(=N)N)NC(=O)[C@@H](N)CCCNC(=N)N)C(C)C)C(C)C)C(C)C)C(=O)N[C@@H](CCC(=O)O)C(=O)N[C@@H](Cc1ccccc1)C(=O)O [Corticotropin_(17-40)] (H-RRPVKVYPNVAENESAEAFPLEF-OH; N-terminus and C-terminus assumed) | 4.7 | – | No response | Response >1uM |
